Literature values as cited in patent publication US11173140B2, “Dosing regimens of PKC activators” (COGNITIVE RESEARCH ENTERPRISES, INC., priority 2015, dated 2021).
Like-named read-outs stand apart in the source and are kept apart here.

Experiments:
PKC [1] = details: cited from earlier work
PKC [2] = details: cited from earlier work; remark: listed apart in the source
PKC [3] = details: competition with [3H] phorbol dibutyrate; read-out: Ki, binding to PKC; cited from earlier work
NCI 60 cell line screen = details: NCI 60 cell lines; cited from earlier work
[4] = A-ring bryologs, read-out: affinity for PKC

For `CCCCCCCC(=O)O[C@H]1/C(=C/C(=O)OC)C[C@H]2C[C@H](CO)OC(=O)C[C@H](O)C[C@@H]3CCC[C@H](C[C@@H]4CCO[C@H](/C=C/C(C)(C)[C@]1(O)O2)O4)O3` [Analog 1], the “affinity for PKC (in words)” value (PKC [1]) is listed as “highest affinity” and the Ki (PKC [1]; read-out: PKC Affin) is listed as 0.25 nM.
For `CCC1CC1CC1CC1CC1CC1CC1CC1CC1CC1CC1CC1CCC(=O)OC` (stereo not shown) [DHA-CP6, cyclopropanated docosahexaenoic acid methyl ester], the effective concentration (PKC [2]) is listed as 10 nM.
For `CC1=C[C@]23C(=O)[C@@H](C=C(COC(=O)c4ccccc4)[C@@H](O)[C@]2(O)[C@H]1OC(=O)c1ccccc1)[C@H]1[C@@H](C[C@H]3C)C1(C)C` [Ingenol 3,20-dibenzoate], the Ki (PKC [3]) is listed as 240 nM.
For `CC1=CC[C@H](C)C(C)(C)[C@@H]1/C=C/C(C)=C/CC[C@@]1(CO)[C@H](CCCO)/C(=C(/C)C=O)CC[C@]1(C)O` [Iripallidal], the “GI50 (concentration required to inhibit growth by 50%)” value (NCI 60 cell line screen) is given as “micromolar to nanomolar range”.
For `CCCCCCCC(=O)OC1C(=CC(=O)OC)CC2CC(CO)OC(=O)CC(O)CCOC(C(C)(C)C)CC3CCOC(C=CC(C)(C)C1(O)O2)O3` (stereo not shown) [bryolog 3], the Ki (PKC [1]; [4]) is given as 6.5 nM.
In the case of `CCCCCCCC(=O)OC1C(=CC(=O)OC)CC2CC(CO)OC(=O)CC(O)CCOC(c3ccccc3)CC3CCOC(C=CC(C)(C)C1(O)O2)O3` (stereo not shown) [bryolog 4], the Ki (PKC [1]; [4]) is listed as 2.3 nM.
